Results: article PMC8583042, “New Hybrid Compounds Combining Fragments of Usnic Acid and Thioether Are Inhibitors of Human Enzymes TDP1, TDP2 and PARP1” (International Journal of Molecular Sciences, 2021)

Experiments:
TDP2 = biological target: T1, TDP2 (Homo sapiens, UniProt O95551); test: Gel-based TDP2 activity assay; assay type: biochemical
T1 construct: His-tag (N); made in house; host or cells: E. coli BL21 (DE3)
T1 sequence (O95551 1-362): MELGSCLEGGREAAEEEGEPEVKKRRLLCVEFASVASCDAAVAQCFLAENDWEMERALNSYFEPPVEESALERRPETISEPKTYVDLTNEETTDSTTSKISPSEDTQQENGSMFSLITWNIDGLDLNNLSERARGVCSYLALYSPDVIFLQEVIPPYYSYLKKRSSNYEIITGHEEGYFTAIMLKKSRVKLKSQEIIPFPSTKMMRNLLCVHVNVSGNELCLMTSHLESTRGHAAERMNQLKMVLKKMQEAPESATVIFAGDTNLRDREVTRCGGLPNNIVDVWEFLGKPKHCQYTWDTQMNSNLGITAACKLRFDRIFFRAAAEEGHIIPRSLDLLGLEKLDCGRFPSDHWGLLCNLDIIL
Description: To study the ability of the investigated compounds to inhibit TDP2 activity, we separated the TDP2 reaction products under denaturing conditions in polyacrylamide gel (PAGE). We tested the ability of TDP2 to eliminate tyrosine residues from the 5’ end of the oligonucleotide substrate in the absence and presence of TDP1 inhibitors. […] The residual TDP2 activity for the best four TDP1 inhibitors, 7g,h and 10a,b, was from 30 to 60%, depending on the tested compound, at a 1 mM concentration of the inhibitor. We tested the ability of compounds 7g,h and 10a,b to inhibit TDP2 activity at 0.2 mM and 0.5 mM concentrations (Figure S26).
The recombinant N-terminally His-tagged TDP2 was expressed in E. coli BL21 (DE3) cells. The plasmid pLATE-31-TDP2 expression vector was constructed as follows. cDNA encoding the TDP2 protein was cloned in the pLATE-31 expression vector using a LICator LIC Cloning and Expression System (Thermo Scientific, Waltham, MA, USA). […]
Oligonucleotide 5′- tyrosine -AAC GTC AGG GTC TTC C- FAM -3′ was synthesized as described above and used for the indication of TDP2 enzyme activity in polyacrylamide gel. […] A Typhoon FLA 9500 phosphorimager (GE Healthcare, Boston, MA, USA) was used for gel scanning and imaging, and the data were analyzed with QuantityOne 4.6.7 software (Bio-Rad Laboratories, Inc., Hercules, CA, USA).

[1] = system: HEK293 wild type and TDP1-/- and PARP1-/- cell lines; test: Joint action of 10a and Tpc on HEK293 wild type, TDP1-/- and PARP1-/- cells; assay type: cell-based, human; settings: data not shown
Description: In our previous works, we checked the cytotoxic effect of Tpc and the TDP1 inhibitors—monoterpene 3-carene-derived compounds [48, 49] and UA combined with monoterpenoids, measured separately and jointly with Tpc—using a panel of HEK293FT and HEK293A Tdp1 knockout isogenic clones. […] The data on the HEK293FT mutants were of low reproducibility, which is why we decided to change the basic cell line to HEK293A [49]. In this work, we created new PARP1-/- HEK293A cells using the CRISPR–Cas9 approach (Figure S27). […] We checked the intrinsic cytotoxicity of the leader compound (10a) on the HEK293 wild type and TDP1-/- and PARP1-/- cell lines using a colorimetric test (Figure 6). […] There was no difference between the WT and mutant cells.
Cytotoxicity of the compounds was examined against human cell lines HEK293A (human embryonic kidney)—WT, TDP1 deficient (Tdp1-/-), PARP1 deficient (PARP1-/-), and HeLa (cervical cancer) using an EZ4U colorimetric test (Biomedica, Vienna, Austria). […] After the formation of a 30–50% monolayer, the tested compounds were added to the medium, and the cell culture was monitored for 3 days. […] The compound concentration that caused 50% cell growth inhibition was determined using OriginPro 8.6.0 software (OriginLab, Northampton, MA, USA). […]

Row | SMILES | TDP2 inhibition (in words) (TDP2) | Effect of the joint presence of 10a and Tpc (in words) [1]
1 | CC(=O)c1c(O)c(C)c(O)c2c1OC1=CC(=O)C(C(C)=O)C(=O)C12C (stereo not drawn) [UA, usnic acid] | did not inhibit TDP2 | 
2 | CC(=O)C1=C(O)C=C2Oc3c(C(=O)C[S+]([O-])c4nc5ccccc5s4)c(O)c(C)c(O)c3[C@@]2(C)C1=O (stereo partly drawn) [10a, (2R)-4-acetyl-10-[2-(1,3-benzothiazole-2-sulfinyl)acetyl]-5,11,13-trihydroxy-2,12-dimethyl-8-oxatricyclo[7.4.0.0^2,7]trideca-1(13),4,6,9,11-pentaen-3-one] | moderately inhibit TDP2 | did not observe any effect
